Patent US8859463B2, “Method for controlling noxious organisms” (Sumitomo Chemical Company, Limited, priority 2009, dated 2014)

Tests used:
Format in all cases: in vivo
corn = assay: Phytotoxicity to corn, Example 7; conditions: day 11 after sowing
Protocol: (§1) The plastic cup was shaken by the hand so as to attach the clothianidin suspension to the corn seeds.
(§2) A soil was packed in a 1/5000a Wagner pot. The above corn seeds. were sown in the Wagner pot at a rate of one seed per pot, and the seeds of Ipomoea hederacea were sown in the pot at a rate of three seeds per pot. […] The aqueous diluted solution of saflufenacil was prepared by dissolving a given amount of saflufenacil in acetone containing 2% (w/v) of Tween 20, and diluting this solution with water to an acetone concentration of 10% (v/v).
(§3) On day 11 after sowing of the seeds of corn and Ipomoea hederacea, the herbicidal effect and phytotoxicity were examined.

soybean = assay: Phytotoxicity to soybean, Example 6; conditions: clothianidin 73 g/ha; flumioxazin none; day 11 after sowing
From the text: (§4) A soil was packed in a 1/5000a Wagner pot. The above soybean seeds were sown in the Wagner pot at a rate of two seeds per pot, and the seeds of Ipomoea hederacea were sown in the pot at a rate of three seeds per pot.
(§5) On day 11 after sowing of the seeds of soybean and Ipomoea hederacea, the herbicidal effect and phytotoxicity were examined.

Aulacorthum solani [1] = assay: Insecticidal effect (protective value), soybean pot test, Example 1; conditions: clothianidin 44.7 g/ha; flumioxazin none; day 6 after release
Protocol: (§6) The evaluation of the insecticidal effect was performed by determining the life and death of the insects at the time of the investigation and calculating the protective value according to the following equation; Protective Value (%)=100×(1−T/C) wherein the symbols have the following meanings;
(§7) C: The number of insects at the time of observation in an untreated section: and
(§8) T: The number of insects at the time of observation in a treated section.
(§9) Thereafter, the test pot was placed in a greenhouse.

Ipomoea hederacea [2] = assay: Herbicidal effect, soybean Wagner pot test, Example 6; conditions: clothianidin 73 g/ha; flumioxazin none; day 11 after sowing; scale 0 to 100
From the text: as §4, §5

Aulacorthum solani [3] = assay: Insecticidal effect (protective value), soybean pot test, Example 3; conditions: day 7 after release
Protocol: as §6, §7, §8, §9

Spodoptera litura [4] = assay: Insecticidal effect (protective value), corn pot test, Example 5; conditions: day 3 after release
Protocol: as §6, §7, §8
(§10) In addition, the clothianidin suspension was attached to the corn seeds in a similar manner except that it was used in an amount of 217.5 μL.
The aqueous diluted solution of saflufenacil was prepared by dissolving a given amount of saflufenacil in acetone containing 2% (w/v) of Tween 20, and diluting this solution with water to an acetone concentration of 10% (v/v).
(§11) Thereafter, the test pot was placed in a greenhouse. On day 22 after corn sowing, 10 fourth-instar larvae of Spodoptera litura were released in the pot and the whole pot was then covered with a nylon cloth.
(§12) On day 3 after release of Spodoptera litura, the insecticidal effect was examined.

Spodoptera litura [5] = assay: Insecticidal effect (protective value), corn pot test, Example 4; conditions: flumioxazin none, day 3 after release
Protocol: as §6, §7, §8, §10, §11, §12

Ipomoea hederacea [6] = assay: Herbicidal effect, corn Wagner pot test, Example 7; conditions: day 11 after sowing, scale 0 to 100
Protocol: as §1, §2, §3

Ipomoea lacunosa [7] = assay: Herbicidal activity, corn pot test, Example 59; conditions: pyraclostrobin none, twelve days after sowing
Protocol: In a glass container measuring 60 mm in inner diameter and 20 mm in height, 8 mg of a pyraclostrobin emulsifiable concentrate (emulsifiable concentrate containing 23.8% pyraclostrobin, manufactured by BASF under the trade name of Comet) and 25 corn seeds were placed. After capping a glass container, the pyraclostrobin emulsifiable concentrate was adhered to the corn seeds by shaking the glass container by hand. In the same manner, 22 mg of the pyraclostrobin emulsifiable concentrate was adhered to the corn seeds.
(§13) A plastic pot measuring 194 mm in inner diameter and 176 mm in height was filled with the soil. In this pot, 2 corn seeds were sown per 1 pot and 10 seeds of Ipomoea lacunosa were sown per 1 pot. On the day of sowing of the corn seeds, after sowing the corn seeds, a water diluted solution (24.5 mg of product/liter) of a flumioxazin granular wettable powder (granular wettable powder containing 51% flumioxazin, manufactured by Valent USA Corporation under the trade name of Valor SX), a water diluted solution (66.7 mg of product/liter) of a sulfentrazone granular wettable powder (granular wettable powder containing 75% sulfentrazone, manufactured by FMC Corporation under the trade name of Cover), a water diluted solution (15 mg/liter) of saflufenacil and a water diluted solution (100 mg/liter) of oxyfluorfen were uniformly sprayed over a surface of the soil in each amount described in Tables 22 to 25, using a sprayer. The water diluted solutions of saflufenacil and oxyfluorfen were prepared by dissolving each predetermined amount of saflufenacil and oxyfluorfen in acetone containing 2% (w/v) Tween 20 and diluting each solution with water so as to adjust the concentration of acetone to 10% by volume.
Twelve days after sowing the seeds of corn and Ipomoea lacunose, herbicidal activity was examined.

Ipomoea lacunosa [8] = assay: Herbicidal activity, corn pot test, Example 76; conditions: metalaxyl-M none, ten days after sowing
Protocol: In a glass container measuring 60 mm in inner diameter and 20 mm in height, 15 mg of a metalaxyl-M emulsifiable concentrate (emulsifiable concentrate containing 33.3% metalaxyl-M, manufactured by Syngenta under the trade name of Apron XL) and 25 corn seeds were placed. After capping this glass container, the metalaxyl-M emulsifiable concentrate was adhered to the corn seeds by shaking the glass container by hand. In the same manner, 33 mg of the metalaxyl-M emulsifiable concentrate was adhered to the corn seeds.
as §13, with “sulfentrazone” for “sulfentrazone,”, “28” for “22”, “31,” for “25,”
Ten days after sowing the seeds of corn and Ipomoea lacunosa, herbicidal activity was examined.

Ipomoea hederacea [9] = assay: Herbicidal activity, corn pot test, Example 16; conditions: azole seed treatment none, saflufenacil 30 g/ha, twelve days after sowing
Protocol: In a glass container measuring 60 mm in inner diameter and 20 mm in height, 8 μl of a prothioconazole emulsifiable concentrate (emulsifiable concentrate containing 25% prothioconazole, manufactured by Bayer Crop Science Inc. under the trade name of Proline) and 20 corn seeds were placed. The prothioconazole emulsifiable concentrate was adhered to the corn seeds by shaking this plastic cup by hand. In the same manner, 8 μl of a difenoconazole emulsifiable concentrate (emulsifiable concentrate containing 25% difenoconazole, manufactured by Syngenta under the trade name of Score) was adhered to 20 corn seeds. In the same manner, 50 mg of a tebuconazole suspension (suspension containing 20% tebuconazole, manufactured by Hokko Chemical Industry under the trade name of ONLY ONE Flowable) was adhered to 20 corn seeds.
A plastic pot measuring 194 mm in inner diameter and 176 mm in height was filled with the soil. In this pot, 3 corn seeds were sown per 1 pot and 10 seeds of Ipomoea hederacea were sown per 1 pot. […]

Aulacorthum solani [10] = assay: Insecticidal effect (protective value), soybean pot test, Example 2; conditions: thiamethoxam 78.9 g/ha; flumioxazin none; day 6 after release
Protocol: as §6, §7, §8, §9

[11] = clothianidin 340 g/ha, saflufenacil none
[12] = clothianidin 605 g/ha, saflufenacil none
[13] = clothianidin none, saflufenacil 32 g/ha

In the case of `CN/C(=N\[N+](=O)[O-])NCc1cnc(Cl)s1` [Clothianidin, clothianidin], the “Phytotoxicity to Corn” value (corn; [11]) is reported as “No harm”, the “Phytotoxicity to Corn” value (corn; [12]) is reported as “No harm” and the “Phytotoxicity to Soybean” value (soybean) is reported as “No harm”. The “Protective Value” (Aulacorthum solani [1]) was 59.1%, the “Evaluation of Effect on Weeds” value (Ipomoea hederacea [2]) was 0 and the “Protective Value” (Aulacorthum solani [3]; clothianidin 55.3 g/ha, sulfentrazone none) was 55.2%. The “Protective Value” (Spodoptera litura [4]; clothianidin 272 g/ha, saflufenacil none) was 30%, the “Protective Value” (Spodoptera litura [4]; clothianidin 496 g/ha, saflufenacil none) was 40% and the “Protective Value” (Spodoptera litura [5]; clothianidin 553 g/ha) was 30%. For the same molecule, the “Protective Value” (Spodoptera litura [5]; clothianidin 984 g/ha) was 65%, the “Evaluation of Effect on Weeds” value (Ipomoea hederacea [6]; [11]) was 0 and the “Evaluation of Effect on Weeds” value (Ipomoea hederacea [6]; [12]) was 0.
For `CCOc1cc(Oc2ccc(C(F)(F)F)cc2Cl)ccc1[N+](=O)[O-]` [Oxyfluorfen, oxyfluorfen], the Herbicidal activity (Ipomoea lacunosa [7]; oxyfluorfen 200 g/ha) was 45 and the Herbicidal activity (Ipomoea lacunosa [8]; oxyfluorfen 200 g/ha) was 45.
With `CC(C)N(C)S(=O)(=O)NC(=O)c1cc(-n2c(=O)cc(C(F)(F)F)n(C)c2=O)c(F)cc1Cl` [Saflufenacil, saflufenacil] the “Phytotoxicity to Corn” value (corn; [13]) was “No harm”, the Herbicidal activity (Ipomoea lacunosa [7]; saflufenacil 30 g/ha) was 45 and the Herbicidal activity (Ipomoea lacunosa [8]; saflufenacil 30 g/ha) was 45. For the same molecule, the “Herbicidal activity on Ipomoea hederacea” value (Ipomoea hederacea [9]) was 88, the “Protective Value” (Spodoptera litura [4]; [13]) was 0% and the “Protective Value” (Spodoptera litura [4]; clothianidin none, saflufenacil 125 g/ha) was 0%. For the same molecule, the “Evaluation of Effect on Weeds” value (Ipomoea hederacea [6]; [13]) was 50.
`Cc1nn(-c2cc(NS(C)(=O)=O)c(Cl)cc2Cl)c(=O)n1C(F)F` [Sulfentrazone, sulfentrazone] was tested, and the Herbicidal activity (Ipomoea lacunosa [7]; sulfentrazone 100 g/ha) was 40, the Herbicidal activity (Ipomoea lacunosa [8]; sulfentrazone 100 g/ha) was 40 and the “Protective Value” (Aulacorthum solani [3]; clothianidin none, sulfentrazone 200 g/ha) was 0%.
`CN1COCN(Cc2cnc(Cl)s2)/C1=N\[N+](=O)[O-]` [Thiamethoxam, thiamethoxam] was tested, and the “Protective Value” (Aulacorthum solani [10]) was 86.9%.
